# From patent publication US8557840B2, “Herbicidal compounds” (Syngenta Limited, priority 2008, dated 2013)
# Tests used:
# Type in all cases: in vivo
# test plants [1] = experiment: Herbicidal action, post-emergence (Example B1), all test plants, result in words; conditions: same protocol as Example B1, post-emergence
# Protocol: (§1) Seeds of a variety of test species were sown in sterilised standard soil in seed trays each having 96 cells. […] The plants were grown in the climatic chamber after application at (24/19° C., day/night; 13 hours light; 50-60% humidity) and watered twice daily. After 9 days until the test was evaluated (10=total damage to plant, 0=no damage to plant)
# Nasturtium officinale = experiment: Herbicidal action, post-emergence, seed trays in climatic chamber (Example B1); conditions: 1000 g/ha, evaluated after 9 days, 10=total damage to plant, 0=no damage to plant
# Protocol: as §1
# Amaranthus retroflexus [2] = experiment: as above; conditions: 1000 g/ha, evaluated after 9 days, 10=total damage to plant, 0=no damage to plant
# Protocol: as §1
# Solanum nigrum [3] = experiment: as above; conditions: 1000 g/ha, evaluated after 9 days, 10=total damage to plant, 0=no damage to plant
# Protocol: as §1
# Stellaria media = experiment: as above; conditions: 1000 g/ha, evaluated after 9 days, 10=total damage to plant, 0=no damage to plant
# Protocol: as §1
# Amaranthus retroflexus [4] = experiment: Herbicidal action, post-emergence, pots in glasshouse (Example B2); conditions: 1000 g/ha, evaluated after 13 days, 10=total damage to plant, 0=no damage to plant
# Protocol: (§2) Seeds of a variety of test species were sown in standard soil in pots. After 8 days cultivation (post-emergence) under controlled conditions in a glasshouse (at 24/16° C., day/night; 14 hours light; 65% humidity), the plants were sprayed with an aqueous spray solution derived from the formulation of the technical active ingredient in acetone/water (50:50) solution containing 0.5% Tween 20 (polyoxyethelyene sorbitan monolaurate, CAS RN 9005-64-5). The test plants were then grown in a glasshouse under controlled conditions in a glasshouse (at 24/16° C., day/night; 14 hours light; 65% humidity) and watered twice daily. After 13 days, the test was evaluated (10=total damage to plant; 0=no damage to plant).
# Setaria faberi = experiment: as above; conditions: 1000 g/ha, evaluated after 13 days, 10=total damage to plant, 0=no damage to plant
# Protocol: as §2
# Solanum nigrum [5] = experiment: as above; conditions: 1000 g/ha, evaluated after 13 days, 10=total damage to plant, 0=no damage to plant
# Protocol: as §2
# Ipomea hederaceae = experiment: as above; conditions: 1000 g/ha, evaluated after 13 days, 10=total damage to plant, 0=no damage to plant
# Protocol: as §2
# Echinochloa crus-galli = experiment: as above; conditions: 1000 g/ha, evaluated after 13 days, 10=total damage to plant, 0=no damage to plant
# Protocol: as §2
# test plants [6] = experiment: Herbicidal action, post-emergence (Example B2), all test plants, result in words; conditions: same protocol as Example B2, post-emergence
# Protocol: as §2
compound,measurement,setting,value
O=c1[nH]c2ncncc2c(O)c1-c1c(F)cc(F)cc1F [E10],damage to the test plants,test plants [1],little or no damage
CCc1cc(C)cc(CC)c1-c1c(OC(=O)C(C)(C)C)c2cccnc2n(C)c1=O [D8],NAAOF damage to plant,Nasturtium officinale,3
same,AMARE damage to plant,Amaranthus retroflexus [2],0
same,SOLNI damage to plant,Solanum nigrum [3],0
same,STEME damage to plant,Stellaria media,2
"CCc1cc(C)cc(CC)c1-c1c(OC(=O)C(C)C)c2cccnc2n(C)c1=O [D6, isobutyric acid 3-(2,6-diethyl-4-methyl-phenyl)-1-methyl-2-oxo-1,2-dihydro-[1,8]naphthyridin-4-yl ester]",NAAOF damage to plant,Nasturtium officinale,0
same,AMARE damage to plant,Amaranthus retroflexus [2],0
same,SOLNI damage to plant,Solanum nigrum [3],0
same,STEME damage to plant,Stellaria media,2
Cn1c(=O)c(-c2c(F)ccc(F)c2Cl)c(OC(=O)C(C)(C)C)c2ccc(Cl)nc21 [D16],AMARE damage to plant,Amaranthus retroflexus [4],2
same,SETFA damage to plant,Setaria faberi,0
same,SOLNI damage to plant,Solanum nigrum [5],2
same,IPOHE damage to plant,Ipomea hederaceae,2
same,ECHCG damage to plant,Echinochloa crus-galli,0
CC(C)(C)C(=O)Oc1c(-c2c(F)ccc(F)c2Cl)c(=O)[nH]c2nc(Cl)ccc12 [D15],damage to the test plants,test plants [1],little or no damage
CC(C)C(=O)Oc1c(-c2c(F)ccc(F)c2Cl)c(=O)n(C)c2cccnc12 [A4],NAAOF damage to plant,Nasturtium officinale,6
same,AMARE damage to plant,Amaranthus retroflexus [2],5
same,SOLNI damage to plant,Solanum nigrum [3],4
same,STEME damage to plant,Stellaria media,4
Cc1cc(Cl)c2c(O)c(-c3c(F)ccc(F)c3Cl)c(=O)n(C)c2n1 [D18],AMARE damage to plant,Amaranthus retroflexus [4],2
same,SETFA damage to plant,Setaria faberi,2
same,SOLNI damage to plant,Solanum nigrum [5],3
same,IPOHE damage to plant,Ipomea hederaceae,0
same,ECHCG damage to plant,Echinochloa crus-galli,0
CC(C)C(=O)Oc1c(-c2c(F)ccc(F)c2Cl)c(=O)n(C)c2ncccc12 [D7],NAAOF damage to plant,Nasturtium officinale,0
same,AMARE damage to plant,Amaranthus retroflexus [2],6
same,SOLNI damage to plant,Solanum nigrum [3],0
same,STEME damage to plant,Stellaria media,3
O=c1[nH]c2cccnc2c(O)c1-c1ccc(Cl)cc1Cl [A1],NAAOF damage to plant,Nasturtium officinale,2
same,AMARE damage to plant,Amaranthus retroflexus [2],0
same,SOLNI damage to plant,Solanum nigrum [3],0
same,STEME damage to plant,Stellaria media,0
Cc1cc2c(c(Cl)n1)c(OC(=O)C(C)(C)C)c(-c1c(F)ccc(F)c1Cl)c(=O)n2C [B5],damage to the test plants,test plants [6],little or no damage
CCn1c(=O)c(-c2c(F)ccc(F)c2Cl)c(OC(=O)C(C)C)c2cncnc21 [E2],AMARE damage to plant,Amaranthus retroflexus [4],5
same,SETFA damage to plant,Setaria faberi,0
same,SOLNI damage to plant,Solanum nigrum [5],4
same,IPOHE damage to plant,Ipomea hederaceae,2
same,ECHCG damage to plant,Echinochloa crus-galli,2
"O=c1c(-c2c(F)ccc(F)c2Cl)c(O)c2cccnc2n1CC(F)F [D21, 3-(2-chloro-3,6-difluoro-phenyl)-1-(2,2-difluoro-ethyl)-4-hydroxy-1H-[1,8]naphthyridin-2-one]",AMARE damage to plant,Amaranthus retroflexus [4],10
same,SETFA damage to plant,Setaria faberi,1
same,SOLNI damage to plant,Solanum nigrum [5],10
same,IPOHE damage to plant,Ipomea hederaceae,9
same,ECHCG damage to plant,Echinochloa crus-galli,2
O=c1[nH]c2ncc(Br)cc2c(O)c1-c1c(F)cccc1F [D27],damage to the test plants,test plants [1],little or no damage
O=c1[nH]c2nncnc2c(O)c1-c1c(F)cc(F)cc1F [E11],damage to the test plants,test plants [1],little or no damage
"Cn1c(=O)c(-c2c(F)ccc(F)c2Cl)c(OC(=O)C(C)(C)C)c2cc(Br)cnc21 [D13, 2,2-dimethyl-propionic acid 6-bromo-3-(2-chloro-3,6-difluoro-phenyl)-1-methyl-2-oxo-1,2-dihydro-[1,8]naphthyridin-4-yl ester]",damage to the test plants,test plants [6],little or no damage
"CCc1cc(C)cc(CC)c1-c1c(O)c2cccnc2n(C)c1=O [D20, 3-(2,6-diethyl-4-methyl-phenyl)-4-hydroxy-1-methyl-1H-[1,8]naphthyridin-2-one]",NAAOF damage to plant,Nasturtium officinale,5
same,AMARE damage to plant,Amaranthus retroflexus [2],0
same,SOLNI damage to plant,Solanum nigrum [3],0
same,STEME damage to plant,Stellaria media,5
O=c1[nH]c2cccnc2c(O)c1-c1c(F)cc(F)cc1F [A9],damage to the test plants,test plants [1],little or no damage
O=c1[nH]c2cccnc2c(O)c1-c1ccccn1 [A8],damage to the test plants,test plants [1],little or no damage
COc1cccc(-c2c(O)c3cccnc3[nH]c2=O)c1 [D25],damage to the test plants,test plants [1],little or no damage
Cn1c(=O)c(-c2c(F)ccc(F)c2Cl)c(OC(=O)C(C)(C)C)c2cccnc21 [D9],NAAOF damage to plant,Nasturtium officinale,2
same,AMARE damage to plant,Amaranthus retroflexus [2],3
same,SOLNI damage to plant,Solanum nigrum [3],0
same,STEME damage to plant,Stellaria media,2
O=c1c(-c2c(F)ccc(Br)c2Cl)c(O)c2cccnc2n1CC(F)F [D32],AMARE damage to plant,Amaranthus retroflexus [4],4
same,SETFA damage to plant,Setaria faberi,1
same,SOLNI damage to plant,Solanum nigrum [5],7
same,IPOHE damage to plant,Ipomea hederaceae,6
same,ECHCG damage to plant,Echinochloa crus-galli,1
Cn1c(=O)c(-c2c(F)ccc(F)c2Cl)c(O)c2ccc(C(F)(F)F)nc21 [D29],AMARE damage to plant,Amaranthus retroflexus [4],6
same,SETFA damage to plant,Setaria faberi,0
same,SOLNI damage to plant,Solanum nigrum [5],4
same,IPOHE damage to plant,Ipomea hederaceae,7
same,ECHCG damage to plant,Echinochloa crus-galli,0
O=c1[nH]c2cnncc2c(O)c1-c1c(F)cc(F)cc1F [E13],damage to the test plants,test plants [1],little or no damage
CCOC(=O)Oc1c(-c2c(C)cc(C)cc2C)c(=O)[nH]c2nncnc12 [E9],AMARE damage to plant,Amaranthus retroflexus [4],0
same,SETFA damage to plant,Setaria faberi,9
same,SOLNI damage to plant,Solanum nigrum [5],0
same,IPOHE damage to plant,Ipomea hederaceae,1
same,ECHCG damage to plant,Echinochloa crus-galli,10
